{
  "source": "patent US8858939B2",
  "about": "“Ectopic pregnancy treatment” (Monash University, priority 2009, dated 2014)",
  "key": {"developing embryo": {"system": "developing embryo", "conditions": "administered for 11 weeks to a person who conceived during a clinical trial; cited from earlier work"}, "EGFR": {"target": "T1, EGFR (Homo sapiens, UniProt P00533)", "T1 construct": "endogenous in cells; host or cells: JEG3 cells", "T1 sequence (P00533 25-1210)": "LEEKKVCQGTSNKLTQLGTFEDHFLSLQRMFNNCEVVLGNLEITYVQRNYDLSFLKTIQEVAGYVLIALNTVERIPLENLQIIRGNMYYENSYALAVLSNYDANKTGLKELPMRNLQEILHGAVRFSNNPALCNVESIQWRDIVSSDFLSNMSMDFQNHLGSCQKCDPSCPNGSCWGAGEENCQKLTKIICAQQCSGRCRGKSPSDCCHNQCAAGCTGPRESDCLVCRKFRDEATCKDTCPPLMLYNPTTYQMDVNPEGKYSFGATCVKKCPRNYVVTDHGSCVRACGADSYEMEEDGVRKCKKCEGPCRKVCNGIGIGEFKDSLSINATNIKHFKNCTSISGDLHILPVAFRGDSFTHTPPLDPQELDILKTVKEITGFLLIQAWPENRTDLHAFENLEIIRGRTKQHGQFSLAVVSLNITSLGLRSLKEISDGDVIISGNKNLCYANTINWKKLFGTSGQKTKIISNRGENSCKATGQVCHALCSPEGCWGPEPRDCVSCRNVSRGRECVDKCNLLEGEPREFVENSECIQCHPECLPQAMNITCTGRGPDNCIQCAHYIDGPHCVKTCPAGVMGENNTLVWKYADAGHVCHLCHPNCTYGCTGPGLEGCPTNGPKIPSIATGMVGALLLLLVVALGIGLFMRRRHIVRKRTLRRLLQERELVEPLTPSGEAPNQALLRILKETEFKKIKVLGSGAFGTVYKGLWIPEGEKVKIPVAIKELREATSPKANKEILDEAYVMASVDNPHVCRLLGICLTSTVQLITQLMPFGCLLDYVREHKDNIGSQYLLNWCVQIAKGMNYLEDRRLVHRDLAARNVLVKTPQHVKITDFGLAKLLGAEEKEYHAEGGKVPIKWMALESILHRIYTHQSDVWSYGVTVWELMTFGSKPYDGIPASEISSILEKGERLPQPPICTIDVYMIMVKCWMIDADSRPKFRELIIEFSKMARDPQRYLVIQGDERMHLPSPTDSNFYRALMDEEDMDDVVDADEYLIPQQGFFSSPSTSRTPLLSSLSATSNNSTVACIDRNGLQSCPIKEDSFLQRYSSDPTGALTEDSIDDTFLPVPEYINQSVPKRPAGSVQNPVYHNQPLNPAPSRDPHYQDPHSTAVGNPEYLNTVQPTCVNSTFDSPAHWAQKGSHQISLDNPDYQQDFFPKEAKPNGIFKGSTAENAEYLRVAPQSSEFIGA", "test": "Western blot of EGF induced EGFR phosphorylation in JEG3 cells", "type": "cell-based", "conditions": "pre-incubation of JEG3 cells, FIG. 5", "experimental": "Cells were trypsinised, washed and lysed in RIPA buffer (50 mM Tris, 150 mM NaCl, 1% triton, 0.1% SDS, 1 mM EDTA, 0.1% sodium deoxycholate, protease inhibitor cocktail, sodium vanadate) for 10 min prior to 15 min sonication and centrifugation at 4° C. to remove cellular debris. Lysates were resolved by reducing SDS-PAGE and transferred to PVDF membranes using the iBlot dry transfer system (Invitrogen)."}, "[1]": {"system": "caspase-cleaved cytokeratin 18", "test": "M30 antibody apoptosis assay (FACS) in JEG3 cells", "type": "cell-based, human", "conditions": "72 hours, FIG. 13C", "experimental": "Cell suspensions were fixed in ice-cold methanol overnight at −20° C., washed in PBS and stained with M30 CytoDeath mouse monoclonal antibody (Sapphire Biosciences), followed by ALEXA® 488-conjugated anti-mouse antibody (Invitrogen). Samples were analyzed on a BD FACS Canto II analyser (BD Biosciences).\nTherefore, the inventors performed FACS sorting using the M30 antibody that detects caspase-cleaved cytokeratin 18, a marker of early apoptosis which persists in cells (Ueno T et al., (2005) Biomed Pharmacother 59 Suppl 2, S359-362). […]. The inventors conclude that combination treatment may increase apoptosis in placental cells."}, "JEG-3 cells": {"system": "JEG-3 cells", "test": "CellTiter-Blue cell viability assay, JEG-3 cells", "type": "cell-based, human", "conditions": "for JEG3 cell death, single agent: CellTitre Blue, increasing doses, 48 and 72 hours, FIGS. 7A, 8A", "experimental": "(§1) JEG-3 and BeWo cells were cultured in DMEM/F-12 medium containing L-glutamine (Invitrogen) supplemented with 10% fetal calf serum (ICP Biologicals). For treatments with methotrexate (Sigma) or Gefitinib (LC Laboratories) media was replaced with media containing 1% FCS.\n(§2) Viability was analysed using the CellTiter-Blue® Cell Viability Assay (Promega).\n(§3) Two different placenta-derived trophoblast-like human choriocarcinoma cell lines as well as isolated human first trimester extravillous trophoblast cells were incubated with methotrexate±gefitinib at various concentrations for 72 hours. […] The viability of the JEG-3, BeWo and primary first trimester extravillous trophoblast cells after treatment with methotrexate and gefitinib was assessed by the CellTiter-Blue® Cell Viability Assay.\n(§4) JEG-3, BeWo and primary first trimester trophoblast cells were seeded at 5000 cells per well in 96-well plates in DMEM/F-12 culture medium containing 1% foetal bovine serum and 1% penicillin/streptomycin and incubated at 37° C. in a humidified atmosphere of 5% CO2. Approximately 40 hours after seeding, drugs were added to the cells in DMEM/F-12 containing 1% foetal bovine serum. A dose of 100 μM of methotrexate (JEG-3 and primary first trimester trophoblast cells) and 200 μM of methotrexate (syncytialised BeWo cells) was used because this dose decreased cell viability by approximately 50%, as observed in initial dose-response experiments. Cells treated with vehicle (DMSO) served as control cells. In all figures, data are expressed as means±SEM. One-way ANOVA and Student's t test were used to compare means between experimental groups. Statistical significance was assumed at P values<0.05. All experiments have been repeated at least twice."}, "syncytialised BeWo cells": {"system": "syncytialised BeWo cells", "test": "CellTiter-Blue cell viability assay, syncytialised (forskolin-treated) BeWo cells", "type": "cell-based, human", "conditions": "for BeWo cell death, single agent: CellTitre Blue, increasing doses, FIGS. 7B, 8B", "experimental": "as §1, §2, §3, §4\nThe effect of combined addition of methotrexate and gefitinib on cell viability of syncytialised BeWo cells is shown in FIG. 3. […] Methotrexate and gefitinib were administered to syncytialised (forskolin-treated) BeWo cells and cell viability determined after 72 hours by CellTiter-Blue assay."}, "JEG3 cells": {"system": "JEG3 cells", "test": "xCELLigence real-time analysis of JEG3 cell growth", "type": "cell-based, human", "conditions": "for decrease in JEG3 growth (xCELLigence): FIG. 6B", "experimental": "The Real-Time Cell Analyzer (RTCA) SP instrument (Roche Diagnostics GmbH) was placed in a humidified incubator maintained at 37° C. with 5% CO2. Cells were seeded at 625-40,000 cells per well in 96-well plates (E-plate 96, Roche Diagnostics GmbH) in medium containing 1% or 10% serum. Cells were initially monitored once every 2 min for 1 h and then once every hour. After addition of treatment, cells were monitored once every 10 min for 3 h and thereafter once every hour.\n[…]. By taking continuous measurements, this assay also tracks cell growth longitudinally. […]."}, "[2]": {"system": "primary first trimester extravillous trophoblast cells", "test": "CellTiter-Blue cell viability assay, primary first trimester extravillous trophoblast cells", "type": "cell-based", "conditions": "Homo sapiens, 100 μM methotrexate, initial dose-response experiments, read-out: decrease in cell viability", "source_text": "1st trimester placenta was collected from healthy women undergoing elective termination of pregnancy (amenorrhea: 8-10 weeks). This research protocol, including written consent from patients, was approved by the Southern Health Human Research and Ethics Committee. From the 1st trimester placental tissue, primary cytotrophoblast was isolated as previously described (Cartwright J E et al., (2002) Placenta 23:232-235). The inventors confirmed the purity of primary cytotrophoblast cells by immunocytochemistry for cytokeratin 7 as previously described (Paiva P et al., (2007) Endocrinology 148:5566-5572).\nas §2\nas §3, with “Assay. […]” for “Assay.”\nImportantly, the efficacy of methotrexate±gefitinib was also assessed in primary human extravillous trophoblast cells isolated from first trimester placenta."}, "[3]": {"system": "subcutaneous JEG3 xenografts", "test": "Subcutaneous JEG-3 xenograft model in SCID mice", "type": "in vivo", "conditions": "i.p.; for xenograft tumour volume at the doses chosen for combination: MTX 0.04 mg/dose, gefitinib 0.5 mg/dose; for xenograft tumour volume, single agent at different doses: days 7 and 13 (FIG. 11: days 7, 10 and 13), FIGS. 10A, 10B, 11", "experimental": "5- to 6-week-old female SCID mice (C.B-17-Igh-1^b-Prkdc^scid; Animal Resources Centre, Perth, Australia) were inoculated with JEG-3 cells (10^6 in 100 μL PBS) subcutaneously. Mice were treated starting at day 7 after JEG-3 injection with gefitinib (0.5-2 mg per dose in 50 μL DMSO), methotrexate (0.04-0.4 mg per dose in 100 μL buffer) or respective vehicle (DMSO/buffer) per intraperitoneal injection (i.p.). Xenograft volume in cubic millimeters was determined using the formula (length×width^2)/2, where length was the longest axis and width was the measurement at right angles to the length. The mice were sacrificed after 19 days, at which time we excised the xenografts, weighed and measured them, and collected blood by cardiac puncture. hCG was quantified in mouse serum using the Elegance hCG ELISA assay (Bioclone). The animal study was reviewed and approved by the Monash University Animal Welfare Committee.\nA subcutaneous JEG-3 xenograft model as established in SCID mice where 1×10^6 JEG-3 cells were injected into the flanks of mice.\nOnce palpable, xenograft growth was monitored by measuring tumour length and width every 3 days using digital callipers. Tumour volume in mm^3 was determined using the formula […], where length was the longest axis and width being the measurement at right angles to the length. Data are expressed as average tumour volume±SEM for each treatment group.\nMean tumour volume was monitored by digital calliper measurements every 3 days. Tumour volume was determined as described above."}, "Akt": {"system": "Akt", "test": "Bio-Plex phosphoprotein assay in JEG3 cells, Akt", "type": "cell-based, human", "conditions": "JEG3 cells treated with EGF, FIG. 12A", "experimental": "(§5) Cell lysates were analyzed for levels of phosphorylated Akt, p-38 MAPK, IκB-α or Erk1/2 using the Bio-Plex Phosphoprotein Assays (Bio-Rad Laboratories).\n(§6) To further explore how these drugs may be acting together to enhance placental cell death, the inventors investigated the phosphorylation status of Akt, p38 mitogen-activated protein kinase (p38-MAPK), extracellular signal-regulated kinase 1/2 (ERK1/2) and IKappaB Kinase (IKB) in response to various treatments in JEG3 cells. These are key signaling molecules representing major downstream pathways of EGFR (Dutta PR & Maity A (2007) Cancer Lett 254:165-177)."}, "ERK1/2": {"system": "ERK1/2", "test": "Bio-Plex phosphoprotein assay in JEG3 cells, ERK1/2", "type": "cell-based, human", "conditions": "FIG. 12C", "experimental": "as §5, §6"}, "IKB-α": {"system": "IKB-α", "test": "Bio-Plex phosphoprotein assay in JEG3 cells, IKB-α", "type": "cell-based, human", "conditions": "FIG. 12D", "experimental": "as §5, §6"}, "p38 MAPK": {"system": "p38 MAPK", "test": "Bio-Plex phosphoprotein assay in JEG3 cells, p38 MAPK", "type": "cell-based, human", "conditions": "FIG. 12B", "experimental": "as §5, §6"}},
  "note": "Entries after “also recorded” stand apart in the source; their conditions may differ.",
  "data": [
    {"smiles": "CS(=O)(=O)CCNCc1ccc(-c2ccc3ncnc(Nc4ccc(OCc5cccc(F)c5)c(Cl)c4)c3c2)o1", "note": "[lapatinib]", "values": [
      {"measurement": "effects on the developing embryo", "setting": "developing embryo", "value": "no ill effects on the developing embryo"}
    ]},
    {"smiles": "CN(Cc1cnc2nc(N)nc(N)c2n1)c1ccc(C(=O)N[C@@H](CCC(=O)O)C(=O)O)cc1", "note": "[methotrexate]", "values": [
      {"measurement": "EGF induced EGFR phosphorylation", "setting": "EGFR", "value": "partially inhibited"},
      {"measurement": "M30 staining (caspase-cleaved cytokeratin 18, early apoptosis)", "setting": "[1]", "value": "increased expression"},
      {"measurement": "JEG3 cell death, single agent", "setting": "JEG-3 cells; listed as MTX", "value": "in a dose dependent manner"},
      {"measurement": "JEG3 cell death, single agent", "setting": "JEG-3 cells; listed as methotrexate (MTX)", "value": "kills JEG3 cells in a dose response manner"},
      {"measurement": "cytotoxicity at 100 µM", "setting": "JEG-3 cells; Homo sapiens, 100 μM methotrexate, JEG-3 cells, initial dose-response experiments, read-out: decrease in cell viability", "value": "~50", "unit": "%"},
      {"measurement": "BeWo cell death, single agent", "setting": "syncytialised BeWo cells", "value": "in a dose dependent manner"},
      {"measurement": "cytotoxicity at 200 µM", "setting": "syncytialised BeWo cells; Homo sapiens, 200 μM methotrexate, syncytialised BeWo cells, initial dose-response experiments, read-out: decrease in cell viability", "value": "~50", "unit": "%"},
      {"measurement": "JEG3 cell growth (xCELLigence)", "setting": "JEG3 cells; FIG. 6, combination: gefitinib doses added to a fixed dose of MTX", "value": "decreased JEG3 cell growth in a dose dependent manner"},
      {"measurement": "cytotoxicity at 100 µM", "setting": "[2]", "value": "~50", "unit": "%"},
      {"measurement": "xenograft tumour volume at the doses chosen for combination", "setting": "[3]", "value": "some reduction"},
      {"measurement": "xenograft tumour volume, single agent at different doses", "setting": "[3]; listed as MTX", "value": "decrease in xenograft tumour volume was observed with increasing doses"},
      {"measurement": "xenograft tumour volume, single agent at different doses", "setting": "[3]; listed as Methotrexate (MTX)", "value": "regresses"},
      {"measurement": "Akt phosphorylation", "setting": "Akt", "value": "significant increase"}
    ]},
    {"smiles": "COc1cc2ncnc(Nc3ccc(F)c(Cl)c3)c2cc1OCCCN1CCOCC1", "note": "[gefitinib, N-(3-chloro-4-fluorophenyl)-7-methoxy-6-(3-morpholinopropoxy)quinazolin-4-amine]", "values": [
      {"measurement": "EGF induced ERK1/2 phosphorylation", "setting": "ERK1/2", "value": "potently blocked"},
      {"measurement": "EGF induced IKB-α phosphorylation", "setting": "IKB-α", "value": "potently blocked"},
      {"measurement": "JEG3 cell death, single agent", "setting": "JEG-3 cells", "value": "not"},
      {"measurement": "JEG3 cell death, single agent", "setting": "JEG-3 cells; listed as Gefitinib", "value": "little or no cell death"},
      {"measurement": "BeWo cell death, single agent", "setting": "syncytialised BeWo cells", "value": "little or no cell death"},
      {"measurement": "EGF induced p38-MAPK phosphorylation", "setting": "p38 MAPK", "value": "potently blocked"},
      {"measurement": "decrease in JEG3 growth (xCELLigence)", "setting": "JEG3 cells; gefitinib 8 μM", "value": "small and transient"},
      {"measurement": "decrease in JEG3 growth (xCELLigence)", "setting": "JEG3 cells; gefitinib 2 or 4 μM", "value": "no"},
      {"measurement": "xenograft tumour volume at the doses chosen for combination", "setting": "[3]", "value": "some reduction"},
      {"measurement": "xenograft tumour volume, single agent at different doses", "setting": "[3]", "value": "potent dose dependent reductions; also recorded: regresses"},
      {"measurement": "Akt phosphorylation", "setting": "Akt", "value": "potently blocked"}
    ]}
  ]
}
